Measurements published in patent US3958011A, “Compositions of tri-n-propylacetic acid and salts thereof and treatment of neurological disorders with such compositions” (priority 1972, dated 1976).

Legend:
mice [1] = assay: Traction test (myorelaxant properties); format: in vivo, mice (OF 1)
Method: This test enables sense of balance as well as muscular tonus and strength to be evaulated.
The test is carried out on groups of 10 male mice of the OF 1 strain weighing about 25 g. It consists of suspending the mice by the front paws to a horizontally stretched wire. Note is first taken of the time required by a group of control animals to effect recovery i.e. to place at least one of their back paws on the wire.

[2] = Rota rod test (neurotoxicity); format: in vivo; conditions: mouse, ip, mice, intraperitoneal, 30 min after administration, read-out: NTD50 (neurotoxic dose 50) in the rota rod test
Method: The test used was that known as the rota rod test (BOISSIER-Therapie 1958, XIII, pp. 1074-1118). This test aims at enabling the animals' ability to coordinate their movements to be evaluated. It is carried out on batches of 10 mice each weighing about 25 g. The compound to be tested is administered by intraperitoneal route to the animals of each batch so that each batch receives a higher dose than that given to the preceding batch. Thirty minutes after administration, the mice are placed for two minutes on a wooden roller of 4.8 cm diameter which turns at the rate of 4 revolutions per minute. The roller has a rough surface to prevent the animals from slipping.
By this means, the neurotoxic dose 50 (NTD 50) can be determined, i.e. the dose of the compound with which one half of the animals can no longer stay on the roller during the period of time fixed as the reference period.
In order to obtain an activity index figure 30 minutes after administration the rota rod test described above was also performed using for comparison a known myorelaxant, namely mephenesin.

rats = assay: Anoxic seizure induced by gallamine triiodoethylate (antianoxic properties); format: in vivo, rats (OFA); conditions: 2 millimols/kg
Excerpt: The injection of a sufficient dose of a synthetic curariform substance such as gallamine triiodoethylate provokes in the rat paralysis of the diaphragm. The animal then dies by asphyxia.
Male rats of the OFA strain and weighing about 250 g. were first anesthetized with ether in order to enable tracheotomy to be performed and cortical electrodes to be inserted. Each rat was then maintained under conditions of artificial respiration by means of an appropriate apparatus and a paralysing dose of gallamine triiodoethylate was administered by intraperitoneal route to eliminate spontaneous breathing. The electrocorticogram, the electrocardiogram and the rectal temperature were registered. After a period of 30 minutes during which stabilization of the registrations was obtained the animal was treated with 2 millimols/kg of an oily solution of tri-n-propylacetic acid or an aqueous solution of one of its alkali metal salts. The artificial respiratory apparatus was stopped 5 minutes after treatment and note was taken of the cardiac frequency every 10 seconds as well as of the period of time between the stopping of the apparatus and the appearance of the flat tracing on the electrocorticogram. This period of time represents the period of survival of the animal. The value of the cardiac frequency corresponding to moment of appearance of the flat tracing was calculated by extrapolation.
The same test was performed on control animals but without administration of a compound of the invention.

mice [3] = assay: Maximum electroshock seizure (anticonvulsant action); format: in vivo, mice (OF 1); conditions: for ED50: Mus musculus, ip, 0.25 h, i.p., 15 min after administration, protection of 50% against tonic seizures
Method: This seizure is characterized in the mouse by extension of the back paws for 5 to 10 seconds. The extension is similar to that observed during the tonicoclonic seizures provoked by chemical convulsants such as pentylenetetrazol or strychnine.
The test was carried out on batches of 10 mice of the OF 1 strain weighing about 22 g. […] Fifteen minutes later, each animal received an electric shock of twice threshold intensity (about 60 volts).
This latter value is indicated by the symbol HD50 or hypnotic dose 50 and the efficacy index by the fraction: [formula]

mice [4] = assay: Pentylenetetrazol-induced seizure (anticonvulsant action); format: in vivo, mice (OF 1); conditions: Mus musculus, ip, i.p., 125 mg/kg pentylenetetrazol i.p.
Method: The purpose of this test which is carried out on mice is to determine whether the compounds of the invention, when given preventively by intraperitoneal route, are capable at certain doses of protecting some of the animals against the epileptic seizure produced by an adequate and predetermined dose of pentylenetetrazol which would be 100% fatal in the absence of the compound. The test was carried out on batches of 10 male OF 1 mice weighing about 25 g.

| Structure (SMILES) | ED50 (mice [1]; Mus musculus, ip, 0.5 h, i.p., 30 min. after administration, read-out: ED50, loss of traction reflex) | Activity index: NTD50/ED50 (mice [1]; rota rod NTD50 / traction ED50, 30 minutes after administration) | TD50 at 0.5 h [2] | Increase of period of survival versus controls (rats) | Period of survival (rats; controls 74.3 ± 2.3) | Cardiac frequency when the flat tracing appears (rats; controls 150, calculated by extrapolation) | ED50 (mice [3]) | ED50 (mice [4]; 0.125 h, 7 min. 30 sec after administration) | ED50 (mice [4]; 0.25 h, 15 min. after administration) | ED50 (mice [4]; 0.5 h, 30 min. after administration) | Efficacy index (HD50 compared with ED50) (mice [3]; electroshock ED50 versus hypnotic dose 50) |
| --- | --- | --- | --- | --- | --- | --- | --- | --- | --- | --- | --- |
| Cc1ccccc1OCC(O)CO (stereo not drawn) [Mephenesin, reference compound] | 250 mg/kg | 0.4 | 100 mg/kg |  |  |  |  |  |  |  |  |
| CCCC(CCC)(CCC)C(=O)O [Tri-n-propylacetic acid, tri-n-propylacetic acid] |  |  |  | 19% | 87.9 ± 3.7 s | 109 | 145 mg/kg | 87 mg/kg | 72 mg/kg | 124 mg/kg |  |
| CCC1(c2ccccc2)C(=O)NC(=O)NC1=O [Phenobarbital, reference compound] |  |  |  |  |  |  | 78 mg/kg |  |  |  | 1.3 |
